# Experimental data published in US20090124610A1, “PHARMACEUTICAL COMPOUNDS” (priority 2006, published 2009).
# Structures can show the parent of a compound that is named as a salt.
# Molecular target: T1, PKA catalytic domain (Homo sapiens, UniProt P17612)
# T1 construct: using the PKA catalytic domain from Upstate Biotechnology (#14-440); purchased Upstate Biotechnology 14-440
# Assay: Measurement of PKA kinase inhibitory activity (IC50), 33P-ATP filter plate assay
# Format: biochemical
# Conditions: 1 nM enzyme, 40 μM ATP/γ33P-ATP, 5 μM substrate […], 20 minutes
# Protocol: Compounds of the invention can be tested for PK inhibitory activity using the PKA catalytic domain from Upstate Biotechnology (#14-440) and the 9 residue PKA specific peptide ([…]), also from Upstate Biotechnology (#12-257), as the substrate. A final concentration of 1 nM enzyme is used in a buffer that includes 20 mM MOPS pH 7.2, 40 μM ATP/γ^33P-ATP and 5 μM substrate. Compounds are added in dimethylsulphoxide (DMSO) solution to a final DMSO concentration of 2.5%. The reaction is allowed to proceed for 20 minutes before addition of excess orthophosphoric acid to quench activity. Unincorporated γ^33P-ATP is then separated from phosphorylated proteins on a Millipore MAPH filter plate. The plates are washed, scintillant is added and the plates are then subjected to counting on a Packard Topcount.
# The % inhibition of the PKA activity is calculated and plotted in order to determine the concentration of test compound required to inhibit 50% of the […] activity (IC50).
row,Compound,IC50 [µM]
1,"CNCC(c1ccc(Cl)cc1)c1ccc(-c2ncnc3ccsc23)cc1 (stereo not shown) [Example 1, [2-(4-Chloro-phenyl)-2-(4-thieno[3,2-d]-pyrimidin-4-yl-phenyl)-ethyl]-methyl-amine bis-trifluoroacetate]",< 1
2,"Clc1ccc(C2(c3ccc(-c4ncnc5ccsc45)cc3)CCNCC2)cc1 [Example 4, 4-{4-[4-(4-Chloro-phenyl)-piperidin-4-yl]-phenyl}-thieno[3,2-d]pyrimidine formate]",< 1

# Molecular target: T2, PKB-PIF (Homo sapiens, UniProt P31751)
# T2 construct: PIF (fusion partner); made in house
# Assay: Measurement of PKB kinase inhibitory activity (IC50), 33P-ATP filter plate assay
# Format: biochemical
# Conditions: 0.6 nM enzyme, 30 μM ATP/γ33P-ATP, 25 μM AKTide-2T substrate, 20 minutes
# Excerpt: The inhibition of protein kinase B (PKB) activity by compounds can be determined determined essentially as described by Andjelkovic et al. (Mol. Cell. Biol. 19, 5061-5072 (1999)) but using a fusion protein described as PKB-PIF and described in full by Yang et al (Nature Structural Biology 9, 940-944 (2002)). The protein is purified and activated with PDK1 as described by Yang et al. The peptide AKTide-2T (H-A-R-K-R-E-R-T-Y-S-F-G-H-H-A-OH) obtained from Calbiochem (#123900) is used as a substrate. A final concentration of 0.6 nM enzyme is used in a buffer that includes 20 mM MOPS pH 7.2, 30 μM ATP/γ^33P-ATP and 25 μM substrate. Compounds are added in DMSO solution to a final DMSO concentration of 2.5%. The reaction is allowed to proceed for 20 minutes before addition of excess orthophosphoric acid to quench activity. The reaction mixture is transferred to a phosphocellulose filter plate where the peptide binds and the unused ATP is washed away. After washing, scintillant is added and the incorporated activity measured by scintillation counting.
# The % inhibition of the PKB activity is calculated and plotted in order to determine the concentration of test compound required to inhibit 50% of the PKB activity (IC50).
# T2 sequence (P31751 with tags, fused parts or gaps limits assumed): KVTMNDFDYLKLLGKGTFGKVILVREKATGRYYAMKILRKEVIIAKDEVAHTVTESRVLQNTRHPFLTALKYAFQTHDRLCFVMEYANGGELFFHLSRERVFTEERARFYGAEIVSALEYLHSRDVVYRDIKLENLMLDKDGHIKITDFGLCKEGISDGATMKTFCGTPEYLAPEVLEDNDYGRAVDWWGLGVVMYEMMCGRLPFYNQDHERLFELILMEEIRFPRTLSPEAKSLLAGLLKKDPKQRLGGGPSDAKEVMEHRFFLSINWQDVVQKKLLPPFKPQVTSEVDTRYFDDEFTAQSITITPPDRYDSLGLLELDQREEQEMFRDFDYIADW
row,Compound,IC50 [µM]
1,"NC1CCN(c2ncnc3ccsc23)CC1 [Example 6, 1-Thieno[3,2-d]pyrimidin-4-ylpiperidin-4-ylamine]",< 5
2,"CNCC(c1ccc(Cl)cc1)c1ccc(-c2ncnc3ccsc23)cc1 (stereo not shown) [Example 1, [2-(4-Chloro-phenyl)-2-(4-thieno[3,2-d]-pyrimidin-4-yl-phenyl)-ethyl]-methyl-amine bis-trifluoroacetate]",< 1
3,"NC1(C(=O)NCc2ccc(Cl)cc2)CCN(c2ncnc3ccsc23)CC1 [Example 5, 4-Amino-1-thieno[3,2-d]pyrimidin-4-yl-piperidine-4-carboxylic acid 4-chloro-benzylamide]",< 1
4,"Clc1ccc(C2(c3ccc(-c4ncnc5ccsc45)cc3)CCNCC2)cc1 [Example 4, 4-{4-[4-(4-Chloro-phenyl)-piperidin-4-yl]-phenyl}-thieno[3,2-d]pyrimidine formate]",< 1
5,"NC1CCN(c2ncnc3sccc23)CC1 [Example 9, 1-Thieno[2,3-d]pyrimidin-4-ylpiperidin-4-ylamine]",< 50
6,"NCCC(c1ccc(Cl)cc1)c1ccc(-c2ncnc3ccsc23)cc1 (stereo not shown) [Example 2, 3-(4-Chloro-phenyl)-3-(4-thieno[3,2-d]pyrimidin-4-yl-phenyl)-propylamine]",< 1
7,"NC1(Cc2ccc(Cl)cc2)CCN(c2ccnc3c2OCC(=O)N3)CC1 [Example 11, 8-[4-Amino-4-(4-chloro-benzyl)-piperidin-1-yl]-4H-pyrido[3,2-b][1,4]oxazin-3-one]",< 5
8,"NCC(c1ccc(Cl)cc1)N1CCN(c2ncnc3ccsc23)CC1 (stereo not shown) [Example 3, 2-(4-Chloro-phenyl)-2-(4-thieno[3,2-d]pyrimidin-4-yl-piperazin-1-yl)-ethylamine formate]",< 1
9,"NC1CCN(c2ccnc3c2C(=O)C(=O)N3)CC1 [Example 10, 4-(4-Amino-piperidin-1-yl)-1H-pyrrolo[2,3-b]pyridine-2,3-dione]",< 50
10,"NC1(Cc2ccc(Cl)cc2)CCN(c2ncnc3ccsc23)CC1 [Example 7, 4-(4-Chlorobenzyl)-1-thieno[3,2-d]pyrimidin-4-ylpiperidin-4-ylamine]",< 1
11,"NC(c1ccc(Cl)cc1)C1CCN(c2ncnc3ccsc23)CC1 (stereo not shown) [Example 8, C-(4-Chlorophenyl)-C-(1-thieno[3,2-d]pyrimidin-4-ylpiperidin-4-yl)methylamine]",< 1
